Assay results taken from the NIST ThermoML archive (doi:10.1021/je060271a).
Numbers after ± are expanded uncertainties.

Details: 303.15 K, Liquid, Vibrating tube method

CCCCCC(=O)OCC(COC(=O)CCCCC)(COC(=O)CCCCC)COC(=O)CCCCC [pentaerythritol tetrahexanoate]
Details | mass density [kg/m3]
5137.3 kPa | 991.5 ± 1.2
5153 kPa | 991.6 ± 1.2
5168.7 kPa | 991.7 ± 1.2
5185 kPa | 991.7 ± 1.2
5201.1 kPa | 991.6 ± 1.2
5220.3 kPa | 991.6 ± 1.2
5236.1 kPa | 991.6 ± 1.2
5252.7 kPa | 991.7 ± 1.2
5271.9 kPa | 991.8 ± 1.2
5288.3 kPa | 991.7 ± 1.2
5304.7 kPa | 991.7 ± 1.2
5321.5 kPa | 991.6 ± 1.2
5341.1 kPa | 991.8 ± 1.2
5357.3 kPa | 991.8 ± 1.2
5683.2 kPa | 992 ± 1.2
5701.2 kPa | 992 ± 1.2
5722.4 kPa | 992 ± 1.2
5740.3 kPa | 992 ± 1.2
5758.4 kPa | 992.1 ± 1.2
5780 kPa | 992.1 ± 1.2
5798.2 kPa | 992 ± 1.2
5816.3 kPa | 992.1 ± 1.2
5835 kPa | 992.1 ± 1.2
5853.7 kPa | 992.1 ± 1.2
5912.7 kPa | 992.1 ± 1.2
6092.3 kPa | 992.3 ± 1.2
6130.7 kPa | 992.2 ± 1.2
6149.9 kPa | 992.4 ± 1.2
6172.7 kPa | 992.3 ± 1.2
6191.3 kPa | 992.3 ± 1.2
6210.7 kPa | 992.3 ± 1.2
6233.5 kPa | 992.3 ± 1.2
6252.4 kPa | 992.3 ± 1.2
6271.5 kPa | 992.4 ± 1.2
6294.4 kPa | 992.3 ± 1.2
6313.7 kPa | 992.3 ± 1.2
6333.6 kPa | 992.5 ± 1.2
6354.3 kPa | 992.4 ± 1.2
6373.3 kPa | 992.4 ± 1.2
6396.3 kPa | 992.4 ± 1.2
6415.5 kPa | 992.5 ± 1.2
6434.7 kPa | 992.6 ± 1.2
6457.8 kPa | 992.5 ± 1.2
6476.9 kPa | 992.5 ± 1.2
6496.6 kPa | 992.5 ± 1.2
6516.3 kPa | 992.5 ± 1.2
6539.1 kPa | 992.5 ± 1.2
6558.1 kPa | 992.5 ± 1.2
6581.1 kPa | 992.6 ± 1.2
6600.9 kPa | 992.6 ± 1.2
6621.4 kPa | 992.5 ± 1.2
6640.4 kPa | 992.6 ± 1.2
6659.3 kPa | 992.6 ± 1.2
6681.6 kPa | 992.6 ± 1.2
6699.9 kPa | 992.6 ± 1.2
6718.5 kPa | 992.7 ± 1.2
6740.3 kPa | 992.7 ± 1.2
6758.3 kPa | 992.6 ± 1.2
6776.2 kPa | 992.7 ± 1.2
6797.8 kPa | 992.7 ± 1.2
6815.4 kPa | 992.7 ± 1.2
6833.2 kPa | 992.7 ± 1.2
6854.1 kPa | 992.7 ± 1.2
6871.8 kPa | 992.8 ± 1.2
6889.4 kPa | 992.6 ± 1.2
6907.3 kPa | 992.8 ± 1.2
6924.8 kPa | 992.7 ± 1.2
6946.2 kPa | 992.8 ± 1.2
6963.8 kPa | 992.8 ± 1.2
6981.6 kPa | 992.8 ± 1.2
6999.8 kPa | 992.8 ± 1.2
7021.5 kPa | 992.9 ± 1.2
7039.5 kPa | 992.8 ± 1.2
7057.3 kPa | 992.9 ± 1.2
7079.2 kPa | 992.9 ± 1.2
7097.5 kPa | 992.8 ± 1.2
7116 kPa | 992.9 ± 1.2
7134.1 kPa | 992.9 ± 1.2
7155.9 kPa | 992.9 ± 1.2
7174.4 kPa | 992.9 ± 1.2
7192.5 kPa | 993 ± 1.2
7214.4 kPa | 993 ± 1.2
7232.7 kPa | 993 ± 1.2
7251.4 kPa | 992.9 ± 1.2
7273.7 kPa | 993 ± 1.2
7292.3 kPa | 993 ± 1.2
7310.6 kPa | 993 ± 1.2
7333.2 kPa | 993 ± 1.2
7352.4 kPa | 993 ± 1.2
7371.4 kPa | 993.1 ± 1.2
7394.2 kPa | 993.1 ± 1.2
7413.2 kPa | 993 ± 1.2
7432.5 kPa | 993.1 ± 1.2
7451.7 kPa | 993.1 ± 1.2
7474.8 kPa | 993.1 ± 1.2
7494.2 kPa | 993.1 ± 1.2
7513.5 kPa | 993.1 ± 1.2
7533.2 kPa | 993.2 ± 1.2
7556.5 kPa | 993.2 ± 1.2
7576.2 kPa | 993.2 ± 1.2
7596.7 kPa | 993.2 ± 1.2
7616.7 kPa | 993.2 ± 1.2
7640.5 kPa | 993.3 ± 1.2
7660.7 kPa | 993.2 ± 1.2
7680.6 kPa | 993.3 ± 1.2
7700.8 kPa | 993.4 ± 1.2
7724.8 kPa | 993.2 ± 1.2
7744.8 kPa | 993.2 ± 1.2
7765.4 kPa | 993.3 ± 1.2
7785.7 kPa | 993.3 ± 1.2
7809.9 kPa | 993.4 ± 1.2
7830.6 kPa | 993.4 ± 1.2
7851.3 kPa | 993.3 ± 1.2
7876.2 kPa | 993.3 ± 1.2
7897.2 kPa | 993.3 ± 1.2
7917.7 kPa | 993.4 ± 1.2
7938.5 kPa | 993.5 ± 1.2
7963.1 kPa | 993.4 ± 1.2
7984.2 kPa | 993.4 ± 1.2
8005.2 kPa | 993.6 ± 1.2
8026.6 kPa | 993.4 ± 1.2
8051.8 kPa | 993.5 ± 1.2
8072.9 kPa | 993.6 ± 1.2
8094.6 kPa | 993.3 ± 1.2
8120 kPa | 993.5 ± 1.2
8141.2 kPa | 993.6 ± 1.2
8163.1 kPa | 993.5 ± 1.2
8186 kPa | 993.6 ± 1.2
8208.3 kPa | 993.6 ± 1.2
8233.8 kPa | 993.6 ± 1.2
8255.4 kPa | 993.6 ± 1.2
8277.5 kPa | 993.6 ± 1.2
8303.5 kPa | 993.7 ± 1.2
8325.2 kPa | 993.6 ± 1.2
8347.2 kPa | 993.7 ± 1.2
8373.2 kPa | 993.7 ± 1.2
8395.6 kPa | 993.7 ± 1.2
8417.7 kPa | 993.7 ± 1.2
8440.3 kPa | 993.7 ± 1.2
8467.9 kPa | 993.8 ± 1.2
8491.4 kPa | 993.8 ± 1.2
8513.6 kPa | 993.8 ± 1.2
8536.1 kPa | 993.9 ± 1.2
8563.5 kPa | 993.6 ± 1.2
